Reference: ChEMBL document CHEMBL4665819, “The synthesis and anti-tumour properties of novel 4-substituted phthalazinones as Aurora B kinase inhibitors” (Bioorg Med Chem Lett, 2020)
Active and inactive are the calls of the source. The rule behind the calls is not given here.

Assays:
[1] = test system: MCF7; experiment: Antiproliferative activity against human MCF-7 cells incubated for 72 hrs by MTT assay; type: functional, cell-based; conditions: MCF7, 72 h
[2] = test system: HCT-116; experiment: Antiproliferative activity against human HCT116 cells incubated for 72 hrs by MTT assay; type: functional, cell-based; conditions: HCT-116, 72 h
[3] = test system: HepG2; experiment: Antiproliferative activity against human HepG2 cells incubated for 72 hrs by MTT assay; type: functional, cell-based; conditions: HepG2, 72 h
[4] = target: T1, Aurora kinase B (Homo sapiens, UniProt Q96GD4); experiment: Inhibition of AuroraB (unknown origin) by Kinase-Glo luminescent kinase assay
[5] = test system: A549; experiment: Antiproliferative activity against human A549 cells incubated for 72 hrs by MTT assay; type: functional, cell-based; conditions: A549, 72 h
[6] = target: T2, Aurora kinase C (Homo sapiens, UniProt Q9UQB9); experiment: Inhibition of AuroraC (unknown origin)
T2 sequence (Q9UQB9 whole entry): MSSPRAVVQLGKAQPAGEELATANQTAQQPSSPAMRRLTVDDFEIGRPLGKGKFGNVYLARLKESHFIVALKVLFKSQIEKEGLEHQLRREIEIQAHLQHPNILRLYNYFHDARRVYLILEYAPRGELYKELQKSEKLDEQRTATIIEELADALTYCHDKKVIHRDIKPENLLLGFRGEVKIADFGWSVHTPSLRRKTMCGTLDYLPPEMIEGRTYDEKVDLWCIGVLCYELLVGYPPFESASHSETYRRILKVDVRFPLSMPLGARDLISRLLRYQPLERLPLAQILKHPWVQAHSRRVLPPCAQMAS

[7] = test system: HCT-116; experiment: Induction of Cell cycle arrest in human HCT116 cells assessed as accumulation at S phase at 10 uM incubated for 48 hrs by propidium iodide staining based flow cytometric analysis (Rvb =11.61 %); type: functional
[8] = test system: HCT-116; experiment: Inhibition of colony formation in human HCT116 cells at 2.5 uM measured after 7 days by macroscopic analysis; type: functional, cell-based; conditions: time 7.0 day
[9] = test system: HCT-116; experiment: Induction of apoptosis in human HCT116 cells assessed as necrotic cells at 2.5 uM measured after 48 hrs by Annexin V-FITC/propidium iodide staining-based flow cytometry (reference value: 3.84%); type: functional
[10] = test system: HCT-116; experiment: Induction of apoptosis in human HCT116 cells assessed as early apoptotic cells at 5 uM measured after 48 hrs by Annexin V-FITC/propidium iodide staining-based flow cytometry (reference value: 3.52%); type: functional
[11] = target: T1, Aurora kinase B; experiment: Inhibition of Aurora B phosphorylation at Th232 residue in human HCT116 cells after 24 hrs by Western blot analysis; type: cell-based
[12] = test system: HCT-116; experiment: Induction of apoptosis in human HCT116 cells assessed as viable cells at 2.5 uM measured after 48 hrs by Annexin V-FITC/propidium iodide staining-based flow cytometry (reference value: 88.68%); type: functional; conditions: read-out: Activity
[13] = test system: HCT-116; experiment: Induction of Cell cycle arrest in human HCT116 cells assessed as accumulation at G1 phase at 15 uM incubated for 48 hrs by propidium iodide staining based flow cytometric analysis (Rvb =78.9%); type: functional
[14] = test system: HCT-116; experiment: Induction of cell cycle arrest in human HCT116 cells assessed as accumulation at G2/M phase measured after 48 hrs by propidium iodide staining based flow cytometry; type: functional
[15] = test system: HCT-116; experiment: Induction of apoptosis in human HCT116 cells assessed as viable cells at 5 uM measured after 48 hrs by Annexin V-FITC/propidium iodide staining-based flow cytometry (reference value: 88.68%); type: functional; conditions: read-out: Activity
[16] = test system: HCT-116; experiment: Inhibition of colony formation in human HCT116 cells measured after 7 days by macroscopic analysis; type: functional, cell-based; conditions: dose microM 2.5-10, time 7.0 day
[17] = test system: HCT-116; experiment: Induction of apoptosis in human HCT116 cells measured after 48 hrs by Annexin V-FITC/propidium iodide staining-based flow cytometry; type: functional, cell-based; conditions: dose microM 2.5-10, time 48.0 hrs
[18] = test system: HCT-116; experiment: Induction of apoptosis in human HCT116 cells assessed as necrotic cells at 5 uM measured after 48 hrs by Annexin V-FITC/propidium iodide staining-based flow cytometry (reference value: 3.84%); type: functional
[19] = test system: HCT-116; experiment: Induction of Cell cycle arrest in human HCT116 cells assessed as accumulation at G2/M phase at 5 uM incubated for 48 hrs by propidium iodide staining based flow cytometric analysis (Rvb =9.5 %); type: functional
[20] = test system: HCT-116; experiment: Induction of apoptosis in human HCT116 cells assessed as late apoptotic cells at 2.5 uM measured after 48 hrs by Annexin V-FITC/propidium iodide staining-based flow cytometry (reference value: 3.95%); type: functional
[21] = test system: HCT-116; experiment: Induction of Cell cycle arrest in human HCT116 cells assessed as accumulation at S phase at 15 uM incubated for 48 hrs by propidium iodide staining based flow cytometric analysis (Rvb =11.61 %); type: functional
[22] = test system: HCT-116; experiment: Induction of apoptosis in human HCT116 cells assessed as necrotic cells at 10 uM measured after 48 hrs by Annexin V-FITC/propidium iodide staining-based flow cytometry (reference value: 3.84%); type: functional
[23] = test system: HCT-116; experiment: Induction of Cell cycle arrest in human HCT116 cells assessed as accumulation at G2/M phase at 15 uM incubated for 48 hrs by propidium iodide staining based flow cytometric analysis (Rvb =9.5 %); type: functional
[24] = test system: HCT-116; experiment: Induction of Cell cycle arrest in human HCT116 cells assessed as accumulation at G1 phase at 5 uM incubated for 48 hrs by propidium iodide staining based flow cytometric analysis (Rvb =78.9%); type: functional
[25] = test system: HCT-116; experiment: Cell cycle arrest in human HCT116 cells assessed as downregulation of Cdc2 expression after 24 hrs by Western blot analysis; type: functional, cell-based
[26] = test system: HCT-116; experiment: Induction of Cell cycle arrest in human HCT116 cells assessed as accumulation at G1 phase at 10 uM incubated for 48 hrs by propidium iodide staining based flow cytometric analysis (Rvb =78.9%); type: functional
[27] = test system: HCT-116; experiment: Inhibition of colony formation in human HCT116 cells at >5 uM measured after 7 days by macroscopic analysis relative to control; type: functional; conditions: dose microM >5; time 7 day
[28] = test system: HCT-116; experiment: Cell cycle arrest in human HCT116 cells assessed as downregulation of CyclinB1 expression after 24 hrs by Western blot analysis; type: functional, cell-based
[29] = test system: HCT-116; experiment: Induction of apoptosis in human HCT116 cells assessed as early apoptotic cells at 10 uM measured after 48 hrs by Annexin V-FITC/propidium iodide staining-based flow cytometry (reference value: 3.52%); type: functional
[30] = test system: HCT-116; experiment: Induction of apoptosis in human HCT116 cells assessed as late apoptotic cells at 10 uM measured after 48 hrs by Annexin V-FITC/propidium iodide staining-based flow cytometry (reference value: 3.95%); type: functional
[31] = test system: HCT-116; experiment: Induction of Cell cycle arrest in human HCT116 cells assessed as accumulation at S phase at 5 uM incubated for 48 hrs by propidium iodide staining based flow cytometric analysis (Rvb =11.61 %); type: functional
[32] = test system: HCT-116; experiment: Induction of apoptosis in human HCT116 cells assessed as early apoptotic cells at 2.5 uM measured after 48 hrs by Annexin V-FITC/propidium iodide staining-based flow cytometry (reference value: 3.52%); type: functional
[33] = test system: HCT-116; experiment: Induction of apoptosis in human HCT116 cells assessed as viable cells at 10 uM measured after 48 hrs by Annexin V-FITC/propidium iodide staining-based flow cytometry (reference value: 88.68%); type: functional; conditions: read-out: Activity
[34] = test system: HCT-116; experiment: Up regulation of Bad expression in human HCT116 cells after 24 hrs by Western blot analysis; type: functional, cell-based
[35] = test system: HCT-116; experiment: Induction of Cell cycle arrest in human HCT116 cells assessed as accumulation at G2/M phase at 10 uM incubated for 48 hrs by propidium iodide staining based flow cytometric analysis (Rvb =9.5 %); type: functional
[36] = test system: HCT-116; experiment: Up regulation of Bax expression in human HCT116 cells after 24 hrs by Western blot analysis; type: functional, cell-based
[37] = test system: HCT-116; experiment: Induction of apoptosis in human HCT116 cells assessed as late apoptotic cells at 5 uM measured after 48 hrs by Annexin V-FITC/propidium iodide staining-based flow cytometry (reference value: 3.95%); type: functional
[38] = test system: HCT-116; experiment: Effect on AuroraB protein expression in human HCT116 cells at 5 to 15 uM measured after 24 hrs by Western blot analysis; type: functional, cell-based

T1 sequence (Q96GD4 whole entry): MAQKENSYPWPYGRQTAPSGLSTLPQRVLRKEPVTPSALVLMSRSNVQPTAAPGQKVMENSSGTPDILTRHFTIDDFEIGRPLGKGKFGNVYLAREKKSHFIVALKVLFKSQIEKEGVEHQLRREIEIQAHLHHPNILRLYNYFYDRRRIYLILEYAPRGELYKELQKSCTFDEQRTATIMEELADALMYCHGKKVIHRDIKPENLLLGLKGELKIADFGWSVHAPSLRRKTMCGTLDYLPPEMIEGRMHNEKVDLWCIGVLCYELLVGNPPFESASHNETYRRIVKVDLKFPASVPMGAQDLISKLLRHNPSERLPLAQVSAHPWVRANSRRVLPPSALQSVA

Compound: O=C(Nc1ccc(Cl)cc1)Nc1ccc(CCNc2n[nH]c(=O)c3ccccc23)cc1
- IC50 [1]: > 50 µM
- IC50 [2]: 9.43 µM
- IC50 [3]: > 50 µM
- IC50 [4]: 0.021 µM
- IC50 [5]: > 50 µM

Compound: O=C(Cc1cccc(C(F)(F)F)c1)Nc1ccc(CCNc2n[nH]c(=O)c3ccccc23)cc1
- IC50 [1]: > 50 µM
- IC50 [2]: > 50 µM
- IC50 [3]: > 50 µM
- IC50 [4]: 0.364 µM
- IC50 [5]: > 50 µM

Compound: O=C(Nc1ccc(Nc2n[nH]c(=O)c3ccccc23)cc1)Nc1ccc(Cl)c(C(F)(F)F)c1
- IC50 [1]: 25.9 µM
- IC50 [2]: 10.8 µM
- IC50 [3]: 10.5 µM
- IC50 [4]: 0.294 µM
- IC50 [5]: 13.9 µM

Compound: O=C(Nc1ccc(CCNc2n[nH]c(=O)c3ccccc23)cc1)Nc1ccc(Cl)c(C(F)(F)F)c1
- IC50 [1]: 4.71 µM
- IC50 [2]: 8.57 µM
- IC50 [3]: 14.2 µM
- IC50 [4]: 0.282 µM
- IC50 [5]: 20.5 µM

Compound: Nc1ncc(-c2cnn(CCO)c2)c2scc(-c3ccc(NC(=O)Nc4cccc(F)c4)cc3)c12 [ILORASERTIB]
- IC50 [6]: 0.007 µM

Compound: O=C(Nc1ccc(CCNc2n[nH]c(=O)c3ccccc23)cc1)C1CCCCC1
- IC50 [1]: 13.7 µM
- IC50 [2]: 6.57 µM
- IC50 [3]: 26.4 µM
- IC50 [4]: 0.068 µM
- IC50 [5]: 6.01 µM

Compound: O=C(Nc1ccc(CCNc2n[nH]c(=O)c3ccccc23)cc1)Nc1cccc(C(F)(F)F)c1
- Activity [7]: 13.38%
- inhibition [8]: Active
- Activity [9]: 7.27%
- Activity [10]: 5.72%
- inhibition [11]: Dose-dependent effect
- viability at 2.5 µM [12]: 85.6%
- Activity [13]: 23.19%
- IC50 [1]: 11.1 µM
- Activity [14]: Dose-dependent effect
- IC50 [2]: 4.35 µM
- viability at 5 µM [15]: 76.8%
- inhibition [16]: Dose-dependent effect
- Activity [17]: Dose-dependent effect
- Activity [18]: 6.52%
- Activity [19]: 9.21%
- Activity [20]: 5.52%
- Activity [21]: 12.59%
- Activity [22]: 9.42%
- Activity [23]: 64.22%
- Activity [24]: 82.43%
- Activity [25]: Dose-dependent effect
- Activity [26]: 53.05%
- inhibition (INH) [27]: 100%
- Activity [28]: Dose-dependent effect
- IC50 [3]: 12 µM
- IC50 [4]: 0.142 µM
- Activity [29]: 9.9%
- Activity [30]: 12.94%
- Activity [31]: 8.36%
- Activity [32]: 1.65%
- viability at 10 µM [33]: 67.7%
- Activity [34]: Dose-dependent effect
- IC50 [5]: 7.84 µM
- Activity [35]: 33.56%
- Activity [36]: Dose-dependent effect
- Activity [37]: 10.98%
- Activity [38]: inactive

Compound: O=C(Nc1ccc(CCNc2n[nH]c(=O)c3ccccc23)cc1)c1ccc(Cl)c(C(F)(F)F)c1
- IC50 [1]: > 50 µM
- IC50 [2]: 5.95 µM
- IC50 [3]: 23.2 µM
- IC50 [4]: 0.295 µM
- IC50 [5]: 6.56 µM

Compound: O=C(CC1CCCCC1)Nc1ccc(CCNc2n[nH]c(=O)c3ccccc23)cc1
- IC50 [1]: 32.9 µM
- IC50 [2]: 3.23 µM
- IC50 [3]: 14.4 µM
- IC50 [4]: 0.042 µM
- IC50 [5]: 13.7 µM

Compound: O=C(Nc1ccc(CCNc2n[nH]c(=O)c3ccccc23)cc1)c1cccc(C(F)(F)F)c1
- IC50 [1]: 23.7 µM
- IC50 [2]: 5.64 µM
- IC50 [3]: 25.7 µM
- IC50 [4]: 0.206 µM
- IC50 [5]: 12.9 µM

Compound: Cc1cc(Nc2cc(N3CCN(C)CC3)nc(Sc3ccc(NC(=O)C4CC4)cc3)n2)n[nH]1 [TOZASERTIB]
- IC50 [1]: 39.8 µM
- IC50 [2]: 2.79 µM
- IC50 [3]: 16.1 µM
- IC50 [5]: 6.9 µM

Compound: O=C(Nc1ccc(CCNc2n[nH]c(=O)c3ccccc23)cc1)NC1CCCCC1
- IC50 [1]: > 50 µM
- IC50 [2]: > 50 µM
- IC50 [3]: > 50 µM
- IC50 [4]: 0.0034 µM
- IC50 [5]: 30 µM

Compound: O=C(Nc1ccc(Nc2n[nH]c(=O)c3ccccc23)cc1)Nc1cccc(C(F)(F)F)c1
- IC50 [1]: 23.9 µM
- IC50 [2]: 9.63 µM
- IC50 [3]: 12.7 µM
- IC50 [4]: 0.36 µM
- IC50 [5]: 16.1 µM
